The source of these data is a melting point compilation (Tetko et al.).

What is called melting point is the temperature of the solid-liquid transition.

`CC(=O)NCc1ccc(S(N)(=O)=O)s1` displayed a melting point of 121 to 123 °C. The result for `Nc1ccc2nc(-n3ccnc3)sc2c1` reads 202 to 204 °C; that for `O=C1COc2cc(NC(=O)OCC(F)(F)F)c(Cl)cc2N1`, 227 to 229 °C. `OC(CN1CCNCC1)c1ccccc1` (centres undefined) gave a melting point of 67 to 69 °C.

Regarding `Cc1nc(-c2cccc(Cl)c2)sc1C(=O)O`, the melting point fell in the range of 191 to 193 °C. Compound `O=Cc1cc(-c2ccccc2)ccc1O` registered a melting point of 99 to 101 °C. The figure for `CC(C)(C)c1nnc(CCl)o1` is 42 to 44 °C; for `CC(Cl)C(=O)c1c(N)n(C)c(=O)n(C)c1=O` (centres undefined) it is 140 to 142 °C; for `CN(C)C(=O)Sc1cnc2nccn2c1` it is 129 to 131 °C. `CC(=O)c1ccc(C)c(S(N)(=O)=O)c1` had a melting point of 144 to 146 °C.

For the compound `Cc1c(F)ccc2sc(N)nc12`, the melting point is 174 to 176 °C. As for `CCc1nn2c(=O)cc(CCl)nc2s1`, the melting point lay in the range of 97 to 99 °C.

`CC(O)C1CCCCN1C(=O)OC(C)(C)C` (centres undefined) had a melting point of 46 to 48 °C. `N#Cc1ccc2nc(Cl)ccc2c1` had a melting point of 208 to 210 °C.

`CCOC(=O)C(=O)NN` gave a melting point of 39 to 41 °C. Compound `COc1cc2nc(C)sc2cc1N` registered a melting point of 89 to 91 °C. For `Cn1ncc2c1CCCC2=O`, the melting point lay within 89 to 91 °C. Compound `NC(=S)Cc1cccc(F)c1` had a melting point of 69 to 71 °C. The result for `[N-]=[N+]=Nc1ccnc(C(N)=O)c1` reads 169 to 171 °C. On to `O=C(O)c1cccc(-n2nccc2C(F)(F)F)c1`, for which the melting point is 158 to 160 °C.

With `Cc1cc(NC(=O)C(C)Cl)no1` (centres undefined), the melting point lay within 132 to 134 °C. The result for `Cc1ccc(N2CC(C(=O)O)CC2=O)cc1` (centres undefined) reads 184 to 186 °C. `NCC(O)CN1CCc2ccccc2C1` (centres undefined) displayed a melting point of 59 to 61 °C. The result for `CS(=O)(=O)Nc1nnc(N)s1` reads 251 to 253 °C; that for `O=C(O)C=Cc1nc2ccccc2s1`, 222 to 224 °C; that for `CC(=O)Nc1cc(Cl)ccc1N`, 137 to 139 °C.

`Cn1c(S)nnc1-c1ccncc1` came in with a melting point of 121 to 123 °C. As to `O=C(O)COc1ccc(F)c(Cl)c1`, the melting point fell in the range of 106 to 108 °C.

The compound `O=Cc1cn2cccnc2n1` had a melting point of 189 to 191 °C.

In turn, `COc1cc(C)c(C=O)cc1OC` returned a melting point of 70 to 72 °C. For `Nc1ccc(Oc2ccc(Cl)cc2)cc1C(=O)O`, the melting point was 177 to 179 °C.

Turning to `CC(=O)Nc1ccc2nc(N)sc2c1`, the melting point is 217 to 219 °C. On to `O=C(O)Cc1c[nH]c2ncccc12`, for which the melting point lay in the range of 215 to 217 °C.

For the compound `CC(N)=NO`, the melting point lay in the range of 118 to 120 °C. The result for `O=Cc1cc2c(cc1O)OCO2` reads 114 to 116 °C; that for `COC(=O)C(=O)CC(=O)c1ccc(OC)c(OC)c1`, 141 to 150 °C; that for `COc1cc(=O)[nH]c(NC(=O)CCl)n1`, 189 to 191 °C. As to `Nc1c(-c2ccccc2)ncn1C1CC1`, the melting point lay in the range of 148 to 150 °C.

Turning to `O=C(CCC1CCCO1)NC1CCC(C(=O)O)CC1` (centres undefined), the melting point lay within 199 to 201 °C. For `Nc1nc2ncccc2[nH]1`, the melting point lay within 268 to 270 °C.

In turn, `OCCn1ncc2ccccc21` came in with a melting point of 48 to 50 °C. As for `OCC1CNC(c2ccccc2)=NO1` (centres undefined), the melting point was 149 to 151 °C.

As to `O=Cc1cn2cc(Cl)ccc2n1`, the melting point fell in the range of 183 to 185 °C.

Regarding `Cc1cc(C)nc(NCc2cccc(C(=O)O)c2)n1`, the melting point fell in the range of 224 to 226 °C. In turn, `O=C(c1ccccc1)c1ccc(F)cn1` gave a melting point of 42 to 44 °C. In turn, `CCOC(=O)Cc1ncccc1C(=O)O` yielded a melting point of 128 to 130 °C. With `CNC(=O)C1CNCCO1` (centres undefined), the melting point lay within 93 to 95 °C. With `CCN1CCN(S(=O)(=O)c2ccc(Cl)c(C(=O)O)c2)CC1`, the melting point was in the range of 189 to 191 °C. Compound `Cc1nc(CC(C)C)sc1C(=O)O` had a melting point of 169 to 171 °C.

Consider `Oc1nnc(-c2ccccc2)o1`, for which the melting point was 138 to 140 °C. In the case of `S=C(c1cn(-c2ccccc2)nc1-c1ccccc1)N1CCCCC1`, the melting point was 124 to 126 °C. The result for `CC(C)(C)c1ccc(C2(C(=O)O)CCCC2)cc1` reads 189 to 191 °C; that for `O=C(O)c1cc(Br)c2c(c1)OCCO2`, 258 to 260 °C; that for `NCC1(O)CCS(=O)(=O)CC1`, 175 to 177 °C. Take `CC(=O)N1Cc2ccc(N)cc2C1`: the melting point was in the range of 169 to 171 °C. For the compound `Nc1nc(-c2ccc3c(c2)OCCO3)cs1`, the melting point was in the range of 180 to 182 °C. On to `Cn1ccc(N2CCCC(Br)C2=O)n1` (centres undefined), for which the melting point fell in the range of 104 to 106 °C. `O=S1(=O)CCNC2CCCCC21` (centres undefined) returned a melting point of 75 to 77 °C. The figure for `O=C(O)c1cnn(-c2nccs2)c1` is 181 to 183 °C; for `CC(C)Nc1ccc(S(C)(=O)=O)cc1` it is 111 to 113 °C.

In the case of `Clc1nnc(-c2ccccc2)c2ccccc12`, the melting point was in the range of 156 to 158 °C.

Consider `O=C(O)c1cc(F)cc2[nH]cnc12`, for which the melting point was 339 to 341 °C. `CN1CC(N)C(=O)N1` (centres undefined) yielded a melting point of 55 to 57 °C. Consider `Cc1sc(N)nc1-c1cccc([N+](=O)[O-])c1`, for which the melting point is 175 to 177 °C.

Consider `COC(=O)c1ccnc(C#N)c1`, for which the melting point fell in the range of 109 to 111 °C. For `O=C(O)Cn1ncc2ccccc21`, the melting point was in the range of 188 to 190 °C. With `C1CCc2nnc(C3CCCN3)n2CC1` (centres undefined), the melting point lay in the range of 91 to 93 °C. The compound `O=C(O)c1ccc(CN2C(=O)c3ccccc3C2=O)cc1` returned a melting point of 258 to 260 °C. For `CC(C(=O)O)c1ccc(S(C)(=O)=O)cc1` (centres undefined), the melting point is 91 to 93 °C.

`O=C(O)CSCc1cc(-c2cccs2)on1` gave a melting point of 113 to 115 °C.

For `CCOc1ccc2nc(NS(=O)(=O)c3cc(C(=O)O)c(Cl)cc3Cl)sc2c1`, the melting point lay in the range of 163 to 165 °C. The figure for `CN(C)S(=O)(=O)c1ccc2[nH]c(=O)oc2c1` is 202 to 204 °C. Compound `c1cnc2c(c1)NCCCN2` showed a melting point of 84 to 86 °C. As for `N#CCC1C(=O)Nc2ccccc21` (centres undefined), the melting point fell in the range of 161 to 163 °C. In turn, `O=C(O)c1cc(S(=O)(=O)NCCCN2CCCC2=O)ccc1Cl` came in with a melting point of 98 to 100 °C. `COc1ccccc1Nc1ccc(N)cc1` showed a melting point of 73 to 75 °C.

In turn, `Cc1csc(-c2no[nH]c2=N)n1` displayed a melting point of 147 to 149 °C. The figure for `CCNc1c(N)n(CC)c(=O)[nH]c1=O` is 210 to 212 °C.

`CC(=O)C(Cc1ccccc1)NC(=O)CCl` (centres undefined) returned a melting point of 73 to 75 °C.

In turn, `Cc1cc(O)cc(O)n1` came in with a melting point of 324 to 327 °C. Compound `O=S(=O)(c1ccc2oc(S)nc2c1)N1CCCCC1` registered a melting point of 139 to 141 °C.

On to `O=C(O)c1cccc(Oc2ccc(Cl)cc2)c1`, for which the melting point lay in the range of 164 to 166 °C. Consider `CN1CCN(C(N)=S)CC1`, for which the melting point was in the range of 179 to 181 °C.

As to `CS(=O)(=O)N1CCC(CN)CC1`, the melting point was in the range of 63 to 65 °C. Take `CC(Cl)C(=O)NC1CCCC1` (centres undefined): the melting point lay within 111 to 113 °C. In turn, `O=C(O)c1ccc(Oc2ccc(F)cc2F)cc1` came in with a melting point of 172 to 174 °C. For `CCOC(=O)/C(C#N)=C\Nc1ccccc1F`, the melting point lay in the range of 142 to 144 °C.

In the case of `CCCc1nc(C(=O)O)nn1-c1ccccc1Cl`, the melting point lay within 142 to 144 °C. `Cc1ccc(OCCCC(=O)O)cc1` came in with a melting point of 83 to 85 °C.
